pIC50: −log10 of the molar value.
Experiments:
15-lipoxygenase = molecular target: T1, 15-lipoxygenase (Oryctolagus cuniculus, UniProt P12530); test: 15-HETE levels in rabbit nasal mucosa after nasal administration of compound 5 (IL4/IL13 inflammation model); assay type: in vivo; conditions: rostral and caudal regions
T1 construct: Animals were then euthanized and nasal mucosa was collected; tissue Covance; host or cells: nasal mucosa of NZW rabbits
T1 sequence (P12530 1-663): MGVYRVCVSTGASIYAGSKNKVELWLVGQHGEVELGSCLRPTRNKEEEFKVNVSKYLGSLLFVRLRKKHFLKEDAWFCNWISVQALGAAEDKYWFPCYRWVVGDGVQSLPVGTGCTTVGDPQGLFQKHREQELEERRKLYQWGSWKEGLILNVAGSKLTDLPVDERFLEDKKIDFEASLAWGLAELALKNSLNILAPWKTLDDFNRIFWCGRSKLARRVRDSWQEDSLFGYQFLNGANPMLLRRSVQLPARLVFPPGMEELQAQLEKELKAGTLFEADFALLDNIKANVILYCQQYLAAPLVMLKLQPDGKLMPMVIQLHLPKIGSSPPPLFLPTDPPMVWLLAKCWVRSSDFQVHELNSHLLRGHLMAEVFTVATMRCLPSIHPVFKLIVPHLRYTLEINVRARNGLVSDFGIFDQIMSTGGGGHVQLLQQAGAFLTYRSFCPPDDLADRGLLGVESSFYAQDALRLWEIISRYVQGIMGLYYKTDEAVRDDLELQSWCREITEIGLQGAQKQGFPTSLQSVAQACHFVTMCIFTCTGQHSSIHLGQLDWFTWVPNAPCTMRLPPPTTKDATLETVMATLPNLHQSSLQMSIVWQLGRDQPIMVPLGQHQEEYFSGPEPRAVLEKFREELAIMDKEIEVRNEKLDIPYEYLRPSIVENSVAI
Protocol: Six (6) female NZW rabbits were employed in this study. Rabbits were obtained from Covance (Denver Pa.). Rabbits were between approximately 10 and 12 months of age at the time of study start. At time point 0, all animals received 50 μL of solution containing rabbit IL4 (RND Systems/Biotechne) and human IL13 (PreproTech) at a concentration of 0.25 mg/mL each in 0.5×PBS containing 12.5 mg/mL BSA per nostril. This was administered intranasally via a venous catheter attached to a micropipette. The animal was positioned in a supine manner and the venous catheter inserted into the nostril. The volume was introduced into the nasal cavity and the same procedure was repeated with the other nostril.
At the 2, 4, and 6 hour time points, animals in Group 1 (n=3) received 0.2 mL of vehicle (0.9% saline) per nostril and the animals in Group 2 (n=3) received 0.2 mL of compound 5 (10 mM) in vehicle per nostril. […]
Nasal lavage and serum samples were analyzed for the levels of compound 3 and compound 5. […] Compound 3 was quantified using LC-MS/MS (QTrap5500, Applied Biosystems). […] Compound 5 was quantified using LC-MS/MS (QTrap5500, Applied Biosystems). […]

[1] = molecular target: T2, human lipoxygenase (ALOX15 Active Human Recombinant Protein) (Homo sapiens, UniProt P16050); test: Recombinant human ALOX15 assay (DPPP fluorescence)
T2 sequence (P16050 1-662): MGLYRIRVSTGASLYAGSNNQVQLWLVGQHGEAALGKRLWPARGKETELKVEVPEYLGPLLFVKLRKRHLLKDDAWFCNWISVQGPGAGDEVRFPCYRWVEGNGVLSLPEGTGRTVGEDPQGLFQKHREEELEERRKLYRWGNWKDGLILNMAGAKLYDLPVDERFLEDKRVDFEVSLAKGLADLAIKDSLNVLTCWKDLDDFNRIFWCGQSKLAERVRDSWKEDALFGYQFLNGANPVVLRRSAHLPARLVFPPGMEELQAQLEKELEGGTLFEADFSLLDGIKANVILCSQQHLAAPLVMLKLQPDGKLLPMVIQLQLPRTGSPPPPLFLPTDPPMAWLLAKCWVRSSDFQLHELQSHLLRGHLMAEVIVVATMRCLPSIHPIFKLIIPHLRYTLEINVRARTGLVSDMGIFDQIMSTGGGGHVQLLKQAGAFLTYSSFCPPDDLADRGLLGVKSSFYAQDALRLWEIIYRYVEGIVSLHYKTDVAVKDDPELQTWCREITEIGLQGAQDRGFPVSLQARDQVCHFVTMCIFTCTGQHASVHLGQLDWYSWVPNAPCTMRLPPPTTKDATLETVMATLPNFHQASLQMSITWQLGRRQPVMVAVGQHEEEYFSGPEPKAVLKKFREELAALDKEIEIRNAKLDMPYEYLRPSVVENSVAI
Protocol: Within a minute of phosphatase addition, a white precipitate appeared.
This mixture was incubated for 5 min before the addition of 1.5 μL 0.2 mM arachidonic acid.

mean 15-HETE levels in nasal mucosa versus vehicle (FIG. 9) (15-lipoxygenase; rabbits, IL4/IL13 intranasal, compound 5 10 mM 0.2 mL per nostril at 2, 4, 6 hours): lower | mean esterified 15-HETE levels in nasal mucosa versus vehicle (FIG. 10) (15-lipoxygenase; total after NaOH hydrolysis minus free 15-HETE): lower | pIC50 [1]: 7.49 | inhibition of ALOX15 ([1]; in the absence of treatment with phosphatase): No inhibition was observed
SMILES: O=C(Nc1ccc(F)cc1Cl)c1nn(COP(=O)(O)O)c(Cl)c1Cl [compound 5, (4,5-dichloro-3-((2-chloro-4-fluorophenyl)carbamoyl)-1H-pyrazol-1-yl)methyl dihydrogen phosphate]
